Measurements published in PubChem BioAssay AID1963425 (Molecular Pharmacology Branch, DTP, NCI, 2024).

Tested on: 323965-272-R-J2-PDC complex spheroid growth, % test/control
Assay: Anticancer human tumor 323965-272-R-J2-PDC patient-derived pancreatic carcinoma cell line growth inhibition [Asc]
Conditions: for IC50: curve of first compound; for viability, T/C: stronger effect = lower value
Summary of the method: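 Spheroid model: tumor line + HUVEC + hMSC. Single agents and combinations; top conc. at/near clinical Cmax (10 microM if undetermined), half-log dilutions. DMSO stocks at 800-fold test concentration.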

[1] = second compound 0.0316 µM, first compound 0.0316 µM
[2] = second compound 0.0316 µM, first compound 0.1 µM
[3] = second compound 0.1 µM, first compound 0.0316 µM
[4] = second compound 0.1 µM, first compound 0.1 µM
[5] = second compound 0.316 µM, first compound 0.0316 µM
[6] = second compound 0.316 µM, first compound 0.1 µM
[7] = second compound 1 µM, first compound 0.0316 µM
[8] = second compound 1 µM, first compound 0.1 µM
[9] = second compound 3.16 µM, first compound 0.0316 µM
[10] = second compound 3.16 µM, first compound 0.1 µM
[11] = second compound 10 µM, first compound 0.0316 µM
[12] = second compound 10 µM, first compound 0.1 µM
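Note: compound exposure lasted 7 days starting three days after spheroid seeding.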
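Throughout, for viability, T/C: 100% = DMSO vehicle control wells with viability set relative to vehicle.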

Structure (SMILES): Cc1nc(N2CCC3(CC2)COC(C)C3N)c(CO)nc1Sc1ccnc(N)c1Cl (stereo unspecified) + CNC(C)C(=O)NC1CN(S(=O)(=O)c2cccc(S(=O)(=O)N3CCC4CCC(C(=O)NC(c5ccccc5)c5ccccc5)N4C(=O)C(NC(=O)C(C)NC)C3)c2)CCC2CCC(C(=O)NC(c3ccccc3)c3ccccc3)N2C1=O
- IC50 (second compound 0.00316 µM): 1 µM
- IC50 (second compound 0.01 µM): > 3 µM
- IC50 (second compound 0.0316 µM): > 3 µM
- IC50 (second compound 0.1 µM): 1.48 µM
- IC50 (second compound 0.316 µM): 1.52 µM
- IC50 (second compound 1 µM): 0.967 µM
- viability, T/C (second compound 0.00316 µM, first compound 0.00949 µM): 109%
- viability, T/C (second compound 0.00316 µM, first compound 0.03 µM): 84.6%
- viability, T/C (second compound 0.00316 µM, first compound 0.0949 µM): 71.8%
- viability, T/C (second compound 0.00316 µM, first compound 0.3 µM): 55.7%
- viability, T/C (second compound 0.00316 µM, first compound 0.949 µM): 52.4%
- viability, T/C (second compound 0.00316 µM, first compound 3 µM): 43.9%
- viability, T/C (second compound 0.01 µM, first compound 0.00949 µM): 99.4%
- viability, T/C (second compound 0.01 µM, first compound 0.03 µM): 94.3%
- viability, T/C (second compound 0.01 µM, first compound 0.0949 µM): 66%
- viability, T/C (second compound 0.01 µM, first compound 0.3 µM): 62%
- viability, T/C (second compound 0.01 µM, first compound 0.949 µM): 52.6%
- viability, T/C (second compound 0.01 µM, first compound 3 µM): 47.7%
- viability, T/C (second compound 0.0316 µM, first compound 0.00949 µM): 110%
- viability, T/C (second compound 0.0316 µM, first compound 0.03 µM): 97.4%
- viability, T/C (second compound 0.0316 µM, first compound 0.0949 µM): 80%
- viability, T/C (second compound 0.0316 µM, first compound 0.3 µM): 58.1%
- viability, T/C (second compound 0.0316 µM, first compound 0.949 µM): 57.9%
- viability, T/C (second compound 0.0316 µM, first compound 3 µM): 49%
- viability, T/C (second compound 0.1 µM, first compound 0.00949 µM): 93.9%
- viability, T/C (second compound 0.1 µM, first compound 0.03 µM): 96.6%
- viability, T/C (second compound 0.1 µM, first compound 0.0949 µM): 80.9%
- viability, T/C (second compound 0.1 µM, first compound 0.3 µM): 65.6%
- viability, T/C (second compound 0.1 µM, first compound 0.949 µM): 51.2%
- viability, T/C (second compound 0.1 µM, first compound 3 µM): 47.4%
- viability, T/C (second compound 0.316 µM, first compound 0.00949 µM): 97.7%
- viability, T/C (second compound 0.316 µM, first compound 0.03 µM): 85%
- viability, T/C (second compound 0.316 µM, first compound 0.0949 µM): 86.7%
- viability, T/C (second compound 0.316 µM, first compound 0.3 µM): 60.5%
- viability, T/C (second compound 0.316 µM, first compound 0.949 µM): 58.2%
- viability, T/C (second compound 0.316 µM, first compound 3 µM): 42.3%
- viability, T/C (second compound 1 µM, first compound 0.00949 µM): 84.8%
- viability, T/C (second compound 1 µM, first compound 0.03 µM): 80.4%
- viability, T/C (second compound 1 µM, first compound 0.0949 µM): 71.9%
- viability, T/C (second compound 1 µM, first compound 0.3 µM): 62%
- viability, T/C (second compound 1 µM, first compound 0.949 µM): 50.1%
- viability, T/C (second compound 1 µM, first compound 3 µM): 39.8%

Structure (SMILES): Cn1ncnc1[C@H]1c2n[nH]c(=O)c3cc(F)cc(c23)N[C@@H]1c1ccc(F)cc1 + Cc1c(S(C)(=O)=O)c(-c2cc(F)cc(N3CCN(c4ccc(NS(=O)(=O)c5ccc(NC(CCN6CCC(C(=O)OCCCP(=O)(O)O)CC6)CSc6ccccc6)c(S(=O)(=O)C(F)(F)F)c5)cc4)CC3)c2)c(-c2ccc(Cl)cc2)n1C(C)C
- IC50 (second compound 0.0316 µM): > 0.1 µM
- IC50 (second compound 0.1 µM): > 0.1 µM
- IC50 (second compound 0.316 µM): > 0.1 µM
- IC50 (second compound 1 µM): > 0.1 µM
- IC50 (second compound 3.16 µM): > 0.1 µM
- IC50 (second compound 10 µM): > 0.1 µM
- viability, T/C (second compound 0.0316 µM, first compound 0.000316 µM): 105%
- viability, T/C (second compound 0.0316 µM, first compound 0.001 µM): 92.2%
- viability, T/C (second compound 0.0316 µM, first compound 0.00316 µM): 105%
- viability, T/C (second compound 0.0316 µM, first compound 0.01 µM): 96.2%
- viability, T/C [1]: 95.3%
- viability, T/C [2]: 86.4%
- viability, T/C (second compound 0.1 µM, first compound 0.000316 µM): 86.4%
- viability, T/C (second compound 0.1 µM, first compound 0.001 µM): 102%
- viability, T/C (second compound 0.1 µM, first compound 0.00316 µM): 97.9%
- viability, T/C (second compound 0.1 µM, first compound 0.01 µM): 104%
- viability, T/C [3]: 95.4%
- viability, T/C [4]: 92.7%
- viability, T/C (second compound 0.316 µM, first compound 0.000316 µM): 94.8%
- viability, T/C (second compound 0.316 µM, first compound 0.001 µM): 99.7%
- viability, T/C (second compound 0.316 µM, first compound 0.00316 µM): 100%
- viability, T/C (second compound 0.316 µM, first compound 0.01 µM): 84.2%
- viability, T/C [5]: 96.7%
- viability, T/C [6]: 80.5%
- viability, T/C (second compound 1 µM, first compound 0.000316 µM): 96.5%
- viability, T/C (second compound 1 µM, first compound 0.001 µM): 89.3%
- viability, T/C (second compound 1 µM, first compound 0.00316 µM): 88.8%
- viability, T/C (second compound 1 µM, first compound 0.01 µM): 87.2%
- viability, T/C [7]: 84.3%
- viability, T/C [8]: 66.5%
- viability, T/C (second compound 3.16 µM, first compound 0.000316 µM): 86.6%
- viability, T/C (second compound 3.16 µM, first compound 0.001 µM): 76.2%
- viability, T/C (second compound 3.16 µM, first compound 0.00316 µM): 80.3%
- viability, T/C (second compound 3.16 µM, first compound 0.01 µM): 75.4%
- viability, T/C [9]: 70%
- viability, T/C [10]: 64.5%
- viability, T/C (second compound 10 µM, first compound 0.000316 µM): 81.5%
- viability, T/C (second compound 10 µM, first compound 0.001 µM): 73.4%
- viability, T/C (second compound 10 µM, first compound 0.00316 µM): 71.8%
- viability, T/C (second compound 10 µM, first compound 0.01 µM): 69.1%
- viability, T/C [11]: 71.1%
- viability, T/C [12]: 59.6%

Structure (SMILES): O=C(c1cc(Cc2n[nH]c(=O)c3ccccc23)ccc1F)N1CCN(C(=O)C2CC2)CC1 + Cc1c(S(C)(=O)=O)c(-c2cc(F)cc(N3CCN(c4ccc(NS(=O)(=O)c5ccc(NC(CCN6CCC(C(=O)OCCCP(=O)(O)O)CC6)CSc6ccccc6)c(S(=O)(=O)C(F)(F)F)c5)cc4)CC3)c2)c(-c2ccc(Cl)cc2)n1C(C)C
- IC50 (second compound 0.0316 µM): > 10 µM
- IC50 (second compound 0.1 µM): > 10 µM
- IC50 (second compound 0.316 µM): > 10 µM
- IC50 (second compound 1 µM): > 10 µM
- IC50 (second compound 3.16 µM): > 10 µM
- IC50 (second compound 10 µM): > 10 µM
- viability, T/C [1]: 87.5%
- viability, T/C [2]: 92.7%
- viability, T/C (second compound 0.0316 µM, first compound 0.316 µM): 95.7%
- viability, T/C (second compound 0.0316 µM, first compound 1 µM): 98.9%
- viability, T/C (second compound 0.0316 µM, first compound 3.16 µM): 98.3%
- viability, T/C (second compound 0.0316 µM, first compound 10 µM): 89%
- viability, T/C [3]: 103%
- viability, T/C [4]: 93%
- viability, T/C (second compound 0.1 µM, first compound 0.316 µM): 98.1%
- viability, T/C (second compound 0.1 µM, first compound 1 µM): 91.2%
- viability, T/C (second compound 0.1 µM, first compound 3.16 µM): 95%
- viability, T/C (second compound 0.1 µM, first compound 10 µM): 88.2%
- viability, T/C [5]: 92.4%
- viability, T/C [6]: 90.5%
- viability, T/C (second compound 0.316 µM, first compound 0.316 µM): 92.8%
- viability, T/C (second compound 0.316 µM, first compound 1 µM): 87.7%
- viability, T/C (second compound 0.316 µM, first compound 3.16 µM): 91.6%
- viability, T/C (second compound 0.316 µM, first compound 10 µM): 74.7%
- viability, T/C [7]: 85.6%
- viability, T/C [8]: 79.3%
- viability, T/C (second compound 1 µM, first compound 0.316 µM): 83.8%
- viability, T/C (second compound 1 µM, first compound 1 µM): 84.2%
- viability, T/C (second compound 1 µM, first compound 3.16 µM): 80.8%
- viability, T/C (second compound 1 µM, first compound 10 µM): 72.2%
- viability, T/C [9]: 85.9%
- viability, T/C [10]: 76.5%
- viability, T/C (second compound 3.16 µM, first compound 0.316 µM): 78.6%
- viability, T/C (second compound 3.16 µM, first compound 1 µM): 74.2%
- viability, T/C (second compound 3.16 µM, first compound 3.16 µM): 78.4%
- viability, T/C (second compound 3.16 µM, first compound 10 µM): 60.2%
- viability, T/C [11]: 72.4%
- viability, T/C [12]: 75.2%
- viability, T/C (second compound 10 µM, first compound 0.316 µM): 64.9%
- viability, T/C (second compound 10 µM, first compound 1 µM): 71.1%
- viability, T/C (second compound 10 µM, first compound 3.16 µM): 81.1%
- viability, T/C (second compound 10 µM, first compound 10 µM): 51.8%
